According to patent publication US9737525B2, “Small molecule activators of NRF2 pathway” (The General Hospital Corporation, priority 2013, dated 2017):

What was measured:
Type in all cases: cell-based, mouse
[1] = test system: primary cortical neurons expressing 140Q full-length mutant huntingtin; assay: Neuronal viability assay (MTT), wild type and HD primary cortical neurons; conditions: for Cytotoxicity in primary neurons: 0.5 μM and higher
Experimental: Embryonic tissue from wild type and 140Q mouse brains (E15-E17 days into pregnancy) was used to isolate and plate cortical neurons as described (Valencia et al., 2013). Neurons were plated at 8×10^5 cell/ml in a 24-well plate supplemented with 25 μM of L-glutamate and 10 μM of 2-β-mercapto-ethanol (Gibco). Plates were previously coated with poly-L-lysine (30-70 kDa, SIGMA) in borate buffer at pH 8.0 and coated again using DMEM/F12+FBS 10% for 2 hours prior to plating. After 3 days in culture, neurons were treated with 10 μM of β-D-cytosine arabinofurinoside for 24 hours to prevent the proliferation of non-neuronal cells.
Neurons were supplemented with MIND4 at different concentrations 0, 0.1, 0.25 and 0.5 μM at days in vitro 4, 6 and 8 (FIG. 3A). […] To maintain drug concentrations, half of the culture media was replenished with fresh media at each time point and MIND4 treatment doses were adjusted accordingly. Cell viability was measured at DIV 10 as previously described based on the ability of viable neurons to transformed MTT (3-(4,5-Dimethylthiazol-2-yl)-2,5-diphenyltetrazolium bromide) into formazan blue crystals (Valencia et al., 2013). Neurons were incubated with 0.5 mg/ml of MTT for 15 minutes, media was then discarded and formazan blue crystals were dissolved in DMSO 100% and read at 540 nm in a Vector plate reader. Results are expressed as Mean±Standard deviation absorbance units at 540 nm (AU). P values were obtained using a Student's t-test from an N=6 wells per condition for treated wild type and HD neurons.
Cell survival was measured as MTT transformation at 10 days in vitro (DIV). Neurons were treated three times with the compounds at 4, 6 and 8 DIV at the indicated concentrations. Two independent experiments were performed with a total of 13 embryos per genotype, 6 WT and 7 HD respectively; 6 wells were used for each experimental condition (compound dose).

[2] = test system: 5×-ARE promoter-luciferase reporter; assay: 5×-ARE-luciferase reporter assay in primary corticostriatal co-cultures; conditions: 5 μM, 4 hr or 16 hr
Experimental: Primary corticostriatal neuronal co-cultures were prepared from E18 mouse brains as previously described [Kaltenbach, 2010]. Mice were maintained in accordance with Duke University Medical Center Institutional Animal Care and Use Committee guidelines. For 5×-ARE-luciferase reporter assays, neurons were transfected following their isolation (Nucleofector, Lonza) with 2.5 μg Cignal Antioxidant Response Reporter dual luciferase plasmids (Qiagen/SABiosciences) and plated onto pre-established glial beds in 96 well plates. After 4 days in culture at 37° C. under 5% CO2, co-cultures were treated with the indicated compounds for 4 hr or 16 hr then harvested and read for luminescence from firefly and Renilla luciferases according to the Dual Glo luciferase protocol (Promega) using a SpectraMaxL luminometer (Molecular Devices). Each sample was measured in technical triplicate. For quantitative RT-PCR (qPCR) of ARE target genes, corticostriatal co-cultures were prepared as described above and, after 4 days in culture, treated for 6 hr with the indicated compounds followed by RNA harvesting according to the Absolutely RNA miniprep protocol (Agilent Technologies). Purified RNA was converted to cDNA using random hexamers and SuperScript First-Strand RT-PCR Synthesis (Invitrogen). […] Ct values were determined using primer sets against ARE genes Hmox1, Gclc and Nqo1]. […]

BV2 microglia cells = assay: Transcriptional expression profiling in LPS-induced microglia BV2 cells (qRT-PCR)
Experimental: To further validate the NRF2 activating properties of MIND4, effects of the compound on repression of inflammatory responses were tested in LPS-induced BV2 microglia cells, a model in which the influence of NRF2 signaling on inflammation has been well established (Koh et al., 2011). A BV2 mouse microglia cell line was maintained in DMEM media supplemented with 10% FBS (Sigma) and antibiotic-antimycotic mix. Cells were seeded into 12 well plates at the density of 3×10^5 cells/well. Cells were treated with the indicated concentrations of MIND4, MIND4-17, and MIND4A compounds for 24 hr. Cells were then stimulated with 10 ng/ml LPS (E. coli) for 2 hr. Total RNA was isolated using ZR Miniprep kit (Zymo Research). 1 μg of total RNA was used to prepare cDNA. Gene expression was analyzed using VeriQuest SYBR green assay in Roche480 thermocycler. The sequences of gene-specific primers for qPCR were as follows: […]
Immortalized bone marrow derived mouse macrophages (iBMMs) and BV2 mouse microglia cell line were used in the present study. Both cell types were maintained in DMEM media supplemented with 10% FBS and antibiotic-antimycotic mix. Cells were seeded into 12 well plates at the density of 3×10^5 cells/well. Cells were treated with the indicated concentrations of MIND4-17 compounds for 24 hr. Cells were then stimulated with 10 ng/ml LPS (E. coli, Sigma) for 2 hr. Total RNA was isolated using ZR Miniprep kit (Zymo Research). […] of total RNA was used to prepare cDNA. Gene expression was analyzed using VeriQuest SYBR green assay (Affymetrix) in Roche480 thermocycler. Primer sequences are as described above (see Example 9).

[3] = 0.25 μM, treated at 4, 6 and 8 DIV, MTT at 10 DIV
[4] = BV2 cells, dose-dependent, 24 hr

O=[N+]([O-])c1ccc(Sc2nnc(COc3ccccc3)n2-c2ccccc2)c2ncccc12 [MIND4, 5-nitro-8-{[5-(phenoxymethyl)-4-phenyl-4H-1,2,4-triazol-3-yl]thio}quinoline]
Survival of HD neurons ([1]; 0.1 μM): partially improved survival | Survival of HD neurons ([1]; 0.1 μM and 0.25 μM, treated at DIV 4, 6, 8, MTT at DIV 10): improved survival of HD neurons at both doses | Survival of HD neurons [1, 3]: enhanced survival of HD neurons | Cytotoxicity in primary neurons [1]: cytotoxic | Effect on control cortical neurons from wild type mice ([1]; 7 days of treatment): No effects | Transcriptional rate of 5×-ARE promoter-luciferase reporter [2]: able to induce increases in the transcriptional rate | TNFα and IL-6 gene expression (BV2 microglia cells; 3 μM 24 hr pre-treatment, LPS-activated BV2 cells): correspondingly reduced | IL-1β and MCP-1 transcription (BV2 microglia cells; 3 μM 24 hr pre-treatment, basal and LPS-induced BV2 cells): repression of both basal and LPS-induced transcription

O=[N+]([O-])c1ccc(Sc2nnc(COc3ccccc3)n2-c2ccccc2)nc1 [MIND4-17]
Survival of HD neurons [1, 3]: enhanced survival of HD neurons | Cytotoxicity in primary neurons [1]: cytotoxic | Transcriptional rate of 5×-ARE promoter-luciferase reporter [2]: able to induce increases in the transcriptional rate | Expression of inflammatory factors TNFα, IL-6, IL-1β and MCP-1 (BV2 microglia cells; [4]): repressed transcriptional expression of inflammatory factors | Transcription of GCLM and NQO1 (BV2 microglia cells; [4]): increased transcription of the canonical NRF2 target genes GCLM and NQO1
